According to patent US20240108598A1, “Danegaptide for Use in the Treatment or Prevention of a Kidney Disease” (CIANA THERAPEUTICS APS, priority 2021, published 2024):

How the values were obtained:
Cx43 hemichannels = target: T1, Cx43 hemichannels (Homo sapiens, UniProt P17302); experiment: ATP biosensing (hemichannel mediated ATP release); assay type: cell-based; conditions: hPTECs; TGFβ1 10 ng/mL alone, 48 h; removal of extracellular calcium
T1 construct: host or cells: HK2 human kidney proximal tubule epithelial cell line
T1 sequence (P17302 whole entry): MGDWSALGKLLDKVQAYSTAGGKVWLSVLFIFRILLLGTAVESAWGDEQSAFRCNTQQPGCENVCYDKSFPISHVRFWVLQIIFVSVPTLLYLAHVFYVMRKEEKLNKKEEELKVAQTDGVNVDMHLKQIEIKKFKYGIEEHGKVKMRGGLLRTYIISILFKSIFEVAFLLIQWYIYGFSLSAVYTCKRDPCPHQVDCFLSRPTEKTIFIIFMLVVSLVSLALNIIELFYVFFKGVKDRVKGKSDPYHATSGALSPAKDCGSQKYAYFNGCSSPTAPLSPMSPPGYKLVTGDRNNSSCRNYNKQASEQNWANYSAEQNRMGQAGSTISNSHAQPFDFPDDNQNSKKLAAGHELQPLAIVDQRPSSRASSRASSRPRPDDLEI
Method: HK2 cells were cultured in low (5 mM) glucose with/without TGFβ1 (10 ng/ml)±danegaptide (50 or 100 nM) for 48 h. Representative biosensor traces show ATP release following removal of extracellular calcium. […] Peak responses were quantified by comparing against a known concentration of ATP (10 μM) and mean data±SEM plotted (E). Results are representative of 3 separate experiments (n=3; **P<0.01, […] ***P<0.001; one-way ANOVA and Tukey's post-test).
ATP biosensors (Sarissa Biomedical, Coventry UK) were used in a simultaneous dual-recording ampomeric setup as described previously (Price, G. W.; Chadjichristos, C. E.; Kavvadas, P.; Tang, S. C. W.; Yiu, W. H.; Green, C. R.; Potter, J. A.; Siamantouras, E.; Squires, P. E.; Hills, C. E. Blocking Connexin-43 mediated hemichannel activity protects against early tubular injury in experimental chronic kidney disease. Cell Commun. Signal. 2020, 18). A null biosensor was used to account for non-specific electro-active artefacts and subtracted from the ATP trace. Glycerol (2 mM) was included in all recording solutions to enable ATP detection. HK2 cells were seeded on glass coverslips (10 mm diameter) in low glucose DMEM/F12 (5 mmol/L) for 48 h, prior to an overnight serum-starvation. The cells were then incubated with TGFβ1 (10 ng/ml)±danegaptide (100 nM) for 48 h. The coverslips were transferred to a chamber containing Ca^2+-containing BSS perfused at 6 ml/min (37° C.) and left for 10 min to acclimatise. ATP and null biosensors were bent and lowered so that the electrode laid parallel to the cellular monolayer. Once a stable baseline occurred, perfusion of Ca^2+-free BSS stimulated hemichannel opening. After ATP release, Ca^2+-containing BSS was used to close hemichannels, followed by a calibration solution of ATP ([…]). Recordings were acquired at 4 Hz with a Micro CED (Mark2) interface using Spike (v8.03) software.

primary hPTECs [1] = experiment: Inflammation antibody array, supernatant (Table 2); assay type: cell-based, human; conditions: hPTEC supernatant; TGF-β1 10 ng/mL alone, 48 h
Excerpt: An inflammation antibody array was used to assess regulation of 31 candidate inflammatory proteins in supernatant from hPTEC cells treated with TGFβ1±danegaptide. Results are representative of 3 separate experiments and presented as mean±SEM, n=3 with key significances indicated (*P<0.05, **P<0.01, ***P<0.001; one-way ANOVA and Tukey's post-test).
A proteome profiler array (Human Cytokine Array Kit from R&D Systems, Oxfordshire, UK) was used, to determine if danegaptide negates TGFβ1-induced changes in expression and secretion of key pro-inflammatory mediators. Primary hPTECs were cultured as described above and treated with TGFβ1 (10 ng/mL)±danegaptide (100 nM) for 48 h.

primary hPTECs [2] = experiment: Western blotting of extracellular matrix proteins; assay type: cell-based, human; conditions: TGFβ1 10 ng/mL alone, 48 h
Method: Primary hPTECs were cultured in low (5 mM) glucose±TGFβ1 (10 ng/mL)±danegaptide (100 nM) for 48 h. In panel A, expression of the ECM proteins collagen I (Col1), collagen IV (Col4), fibronectin (Fibro), and Laminin (panel B) were assessed via western blotting. […] Danegaptide partially reversed the TGFβ1 evoked change in Integrin Linked Kinase 1 (ILK1; ▴▴▴P<0.001) but had negligible effect on Matrix Metalloproteinase 3 (MMP3). All bars correspond mean±SEM, (n=3) and representative blots are shown with expression normalised by re-probing for α-tubulin as a loading control.
To determine if danegaptide can negate TGFβ1-mediated changes in adherens and tight junction proteins, hPTECs were incubated with TGFβ1 (10 ng/mL)±danegaptide (100 nM) for 48 h and expression of candidate proteins assessed by Western blotting. Preparation of cytosolic protein from HK2 and HPTEC cells, their separation by SDS-gel electrophoresis and transfer onto Immobilon-FI PVDF membranes have been described previously (Price, G. W.; Chadjichristos, C. E.; Kavvadas, P.; Tang, S. C. W.; Yiu, W. H.; Green, C. R.; Potter, J. A.; Siamantouras, E.; Squires, P. E.; Hills, C. E. Blocking Connexin-43 mediated hemichannel activity protects against early tubular injury in experimental chronic kidney disease. Cell Commun. Signal. 2020, 18). Membranes were blocked using Odyssey blocking buffer (LI-COR), then probed overnight with antibodies against E-cadherin (1:1000), N-cadherin (1:1000), claudin-2 (1:500) and ZO-1 (1:1000), Col I (1:1000), Col IV (1:2000), Fibronectin (1:4000), Laminin (1:500), ILK1 (1:500), beta-catenin (1:2000), Vimentin (1:500), MMP3 (1:500). Bands were visualised using an OdysseyFC and semi-quantified using ImageStudio (v5.2, LI-COR). Additionally, transepithelial electrical resistance (TER) was measured as a functional measure of epithelial cell-cell coupling and paracellular permeability.
To examine the effect of danegaptide on TGFβ1-evoked changes in expression of ECM proteins, hPTEC cells were cultured in low (5 mM) glucose for 48 h, serum starved overnight and treated with TGFβ1 (10 ng/mL)±danegaptide (100 nM) for 48 h. Expression of the ECM proteins collagen I, collagen IV, fibronectin, Laminin, Integrin Linked Kinase 1, and Matrix Metalloproteinase 3 were assessed via western blotting.

## TGFβ1: Recombinant hTGFβ1 (Sigma); pro-fibrotic cytokine used to stimulate the cells [reference compound]
Cx43 hemichannels
  ATP release: 3.60 ± 0.29 µM
Primary hPTECs [1]
  Angiogenin in supernatant (% compared to control): 184 ± 13.2%
  Cystatin C in supernatant (% compared to control): 169 ± 19.7%
  DPPIV in supernatant (% compared to control): 222 ± 24.3%
  ENA 78 in supernatant (% compared to control): 193 ± 17.7%
  Endoglin in supernatant (% compared to control): 101 ± 10.6%
  FGF7 in supernatant (% compared to control): 125 ± 11.3%
  Flt 3 Ligand in supernatant (% compared to control): 179 ± 6.5%
  G-CSF in supernatant (% compared to control): 171 ± 7.3%
  GM-CSF in supernatant (% compared to control): 213 ± 33.3%
  HGF in supernatant (% compared to control): 85 ± 15.8%
  ICAM-1 in supernatant (% compared to control): 191 ± 13.0%
  IFNg in supernatant (% compared to control): 123 ± 11.0%
  IGFBP-2 in supernatant (% compared to control): 259 ± 49.6%
  IGFBP-3 in supernatant (% compared to control): 147 ± 7.0%
  IL1A in supernatant (% compared to control): 109 ± 14.8%
  IL3 in supernatant (% compared to control): 127 ± 30.6%
  IL8 in supernatant (% compared to control): 138 ± 48.4%
  IL12 p70 in supernatant (% compared to control): 74 ± 11.5%
  IL13 in supernatant (% compared to control): 95 ± 16.4%
  Kallikrein 3 in supernatant (% compared to control): 75 ± 5.61%
  LIF in supernatant (% compared to control): 249 ± 32.1%
  MCP-1 in supernatant (% compared to control): 171 ± 14.3%
  MMP-9 in supernatant (% compared to control): 41 ± 8.8%
  PDGF-AA/BB in supernatant (% compared to control): 137 ± 9.7%
  RAGE in supernatant (% compared to control): 170 ± 16.3%
  RANTES in supernatant (% compared to control): 140 ± 8.6%
  Serpin E1 in supernatant (% compared to control): 91 ± 4.7%
  TFF3 in supernatant (% compared to control): 114 ± 22.2%
  TNF-α in supernatant (% compared to control): 176 ± 5.5%
  Thrombospondin-1 in supernatant (% compared to control): 120 ± 24.8%
  VEGF in supernatant (% compared to control): 209 ± 43.3%
Primary hPTECs [2]
  Integrin Linked Kinase 1 (ILK1) expression, compared to control: 378.9±16.8%
  Matrix Metalloproteinase 3 (MMP3) expression, compared to control: 185.3±19.6%
  collagen I expression, compared to control: 334.6±30.14%
  collagen IV expression, compared to control: 354.5±16.9%
  fibronectin expression, compared to control: 301.7±50.4%
  laminin expression, compared to control: 324.8±36.4%
